Here are results for one molecule from BindingDB's records for patent US20240101551 (Chia Tai Tianqing Pharmaceutical Group, 2024).

In this assay the target is T1, Bromodomain-containing protein 4 [75-147] (Homo sapiens, UniProt O60885).
T1 construct: 75-147
The assay can be described thus: In Vitro Enzymatic Activity Assay. The method, then:
In the present application, the IC50 value of the compound of formula (I) in inhibiting BRD4 (BD1) enzyme binding reaction were determined by homogeneous time resolved fluorescence (HTRF). The compound of formula (I) was serially diluted 5-fold with 100% DMSO starting from 0.2 mM (7 concentrations in total), and then 2 μL of the compound of formula (I) at each concentration was added to 48 μL of a reaction buffer (20 mM HEPES pH 7.5, 150 mM NaCl, 5 mM DTT, 0.005 % Tween 20, and 100 μg/mL BSA) for dilution, and mixed well. 2.5 μL of the resulting mixture was added to a 384-well plate (OptiPlate-384, purchased from PerkinElmer), then 5 μL of GST-BRD4 (BD1, 44-168 aa) (final concentration: 1 nM) was added, and the resulting mixture was centrifuged, and fully mixed. 2.5 μL of a short peptide Biotin-AHA-SGRGK(Ac)GGK(Ac)GLGK(Ac)GGAK(Ac) RHRKV (final concentration: 100 nM) was then added to initiate the reaction (total reaction volume: 10 μL). […] After being incubated in the incubator for another 1 hour, the fluorescence values (excited at 320 nm, emitted light at 665 nm and 620 nm being detected, and the ratio of the two being the enzyme binding signal) were read on Envision (purchased from PerkinElmer).

Usually IC50 stands for the concentration that inhibits the measured activity by half. Low readings indicate higher potency, high ones lower potency. Consider `Cn1cc(-c2nc(CS(C)(=O)=O)ccc2Oc2ccc(F)cc2F)c2cc[nH]c2c1=O` [US20240101551, Compound of Formula I], for which it took 0.64 nM to reach half-maximal inhibition (IC50).
